Laboratory results taken from US6300501A, “Histidine-(N-benzyl glycinamide) inhibitors of protein farnesyl transferase” (Warner-Lambert Company, priority 1998, dated 2001).
Like-named read-outs stand apart in the source and are kept apart here.

Experiments:
[1] = target: T1, SF9 affinity purified rat farnesyl protein transferase (Rattus norvegicus, UniProt Q02293+Q04631); assay: PFT inhibitory activity (radiolabeled farnesyl pyrophosphate, streptavidin bead assay); format: biochemical
T1 construct: made in house; host or cells: Sf9 insect cells (baculovirus system inferred from b7)
T1 sequence (Q02293 whole entry, one chain of several): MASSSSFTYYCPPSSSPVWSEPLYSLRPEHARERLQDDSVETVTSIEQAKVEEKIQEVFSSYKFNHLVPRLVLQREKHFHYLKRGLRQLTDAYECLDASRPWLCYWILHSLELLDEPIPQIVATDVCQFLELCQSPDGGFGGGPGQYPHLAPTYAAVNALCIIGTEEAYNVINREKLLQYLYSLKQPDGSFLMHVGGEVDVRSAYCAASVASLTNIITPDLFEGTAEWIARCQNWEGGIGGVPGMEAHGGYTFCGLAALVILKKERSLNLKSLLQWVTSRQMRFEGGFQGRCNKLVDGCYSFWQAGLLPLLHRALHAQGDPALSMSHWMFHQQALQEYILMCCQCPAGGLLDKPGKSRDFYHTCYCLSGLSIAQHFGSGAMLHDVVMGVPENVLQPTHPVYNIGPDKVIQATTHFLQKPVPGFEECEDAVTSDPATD
Description: The protein:farnesyl transferase (PFT) or farnesyl protein transferase (FPT) inhibitory activity of compounds of the present invention were assayed in HEPES buffer (pH 7.4) containing 5 mM potassium phosphate and 20 μM ZnCl2. The solution also contained 5 mM DTT (dithiothreitol), 5 mM MgCl2, and 0.1% PEG 8000. Assays were performed in 96 well plates (Wallec) and employed solutions composed of varying concentrations of a compound of the present invention in 100% DMSO (dimethylsulfoxide). Upon addition of both substrates, radiolabeled farnesyl pyrophosphate ([1^3 H], specific activity 15-30 Ci/mmol, final concentration 134 nM) and (biotinyl)-Ahe-Thr-Lys-Cys-Val-Ile-Met ([3aS[3a alpha, 4 beta, 6a alpha]-hexahydro-2-oxo-1H-thieno[3,4-d]imidazole-5-pentanoic acid]-[7-aminoheptanoic acid]-Thr-Lys-Cys-Val-Ile-Met) (Ahe is 7-aminoheptanoic acid, Thr is threonine, Lys is lysine, Cys is cysteine, Val is valine, Ile is isoleucine and Met is methionine) (final concentration 0.2 μM), the enzyme reaction was started by addition of SF9 affinity purified rat farnesyl protein transferase. After incubation at 30° C. for 30 minutes, the reaction was terminated by diluting the reaction 2.5-fold with a stop buffer containing 1.5 M magnesium acetate, 0.2 M H3 PO4, 0.5% BSA (bovine serum albumin), and strepavidin beads (Amersham) at a concentration of 1.3 mg/mL. After allowing the plate to settle for 30 minutes at room temperature, radioactivity was quantitated on a microBeta counter (Model 1450, Wallec). The assay was also carried out without 5 mM potassium phosphate.

[2] = system: ras farnesylation in ras-transformed cells; assay: Gel shift assay; format: cell-based; settings: for minimal effective concentration: read-out: Gel Shift (μM) MED (minimal effective dose to observe inhibition of ras farnesylation)
Description: Twenty-four hours after planting 2×10^6 ras-transformed cells per treatment condition, the farnesylation inhibitor is added at varying concentrations. Following an 18-hour incubation period, cells are lysed in phosphate-buffered saline containing 1% Triton X-100, 0.5% sodium deoxycholate, and 0.1% SDS (sodium dodecyl sulfate), pH 7.4 in the presence of several protease inhibitors (PMSF (phenylmethylsulfonylfluoride), antipain, leupeptin, pepstatin A, and aprotinin all at 1 μg/mL). Ras protein is immunoprecipitated from the supernatants by the addition of 3 μg v-H-ras Ab-2 (Y13-259 antibody from Oncogene Science). After overnight immunoprecipitation, 30 μL of a 50% protein G-Sepharose slurry (Pharmacia) is added followed by 45-minute incubation. Pellets are resuspended in 2× tris-glycine loading buffer (Novex) containing 5% β-mercaptoethanol and then denatured by 5 minutes boiling prior to electrophoresis on 14% Tris-glycine SDS gels. Using Western transfer techniques, proteins are transferred to nitrocellulose membranes followed by blocking in blocking buffer. Upon overnight incubation with primary antibody (pan-ras Ab-2 from Oncogene Science), an antimouse HRP (horse radish peroxidase) conjugate secondary antibody (Amersham) is employed for detection of the ras protein. Blots are developed using ECL(enhanced chemiluminescence) techniques (Amersham).

[3] = system: H61 cells: NIH transformed 3T3 H-ras cells; assay: Clonogenic assay (6 well plates, soft agar); format: cell-based
Description: Clonoaenic Assay (6 well lates)
Sometime previous to setting up an actual test:
1. Make up 1.5% Bacto Agar in Milli-Q water and autoclave.
2. Make up 500 mL 2× DMEM-HG without phenol red by combining the following:
1 bottle DMEM base powder (Sigma D-5030)
Adjust pH to 7.1 with HCL; filter sterilize.
1. Set up makeshift water bath (beaker of water with thermometer, on hot plate) in the hood. Keep water temperature between 37° C. to 43° C.
2. […] 1.5% Bacto Agar for approximately 2 minutes on high, or until completely melted. Then let it cool somewhat before using it. (You can keep it from resolidifying by setting the bottle on the hot plate.) […]
3. Bottom Layer (0.6% agar) Top Layer (0.3% agar)
20% calf serum 20% calf serum
40% Bacto Agar (1.5%) 20% Bacto Agar (1.5%)
Depending on the volume of each layer needed, use either 50 mL conical tubes or 200 mL turnip tubes which can be floated in the "water bath".
4. Add 1 mL of bottom layer agar/medium to each well: deliver 1 mL warm agar/medium to a well; then using the tip of the pipet, spread the agar/medium around to completely cover the bottom. Repeat with next well.
5. Allow the plates to set at room temperature for about 5 minutes until the bottom layer solidifies.
6. Label sterile Falcon 2054 (12×75 mm) tubes and add appropriate volume of drug solutions into them.
7. Aliquot 4 AL of DMSO or drug solution per 1 mL of agar/medium to appropriate tubes; then add the agar/medium/cells to each tube. Always add 1 mL more than will actually be needed. Mix up and down in the pipet (gently); then deliver 1 mL to the center of each well. The upper layer is less viscous, so it will generally spread out over the bottom layer unaided. If necessary, rotate the plane of the plate gently to spread the top layer evenly over the bottom layer.
8. Let plates set for 5 or 10 minutes at room temperature to solidify, then put into 5% CO2, 37° C. incubator.
9. On Day 13, add 0.5 mL of INT (tetrazolium 1 mg/mL in Milli-Q H2 O, filter sterilized) and return plates to incubator.

[4] = HEPES buffer pH 7.4, without 5 mM potassium phosphate, read-out: IC50 (μM) Hepes
[5] = HEPES buffer pH 7.4 containing 5 mM potassium phosphate, read-out: IC50 (μM) 5 mM K3 PO4 -2
[6] = with 5 mM potassium phosphate, average obtained by additional tests, read-out: IC50 (μM) 5 mM K3 PO4 -2, number in parentheses
[7] = without 5 mM potassium phosphate, average obtained by additional tests, read-out: IC50 (μM) Hepes, number in parentheses
[8] = ras-transformed cells, 18-hour incubation
[9] = colonies counted after Day 13, read-out: Clonogenic Assay IC50
[10] = 312 h, colonies counted after Day 13, read-out: Clonogenic Assay IC50
[11] = average obtained by additional tests, read-out: Clonogenic Assay IC50 (μM), number in parentheses

IC50 [1, 4]	IC50 [1, 5]	IC50 [1, 6]	Structure (SMILES)	IC50 [1, 7]	minimal effective concentration [2, 8]	IC50 [3, 9]	IC50 [3, 10]	IC50 [3, 11]	Gel Shift (μM) MED, number in parentheses ([2]; average obtained by additional tests)	Gel Shift (μM) MED (minimal effective dose to observe inhibition of ras farnesylation) [2, 8]
5.8 µM	0.0076 µM	0.005 µM	CC(CNC(=O)CN(Cc1ccc(OCc2ccccc2)cc1)C(=O)[C@H](Cc1c[nH]cn1)NC(=O)OCc1ccccc1)c1ccccc1 (stereo partly drawn) [Example 4, (S)-[1-[(4-Benzyloxy-benzyl)-[(2-phenyl-propyl-carbamoyl)-methyl]-carbamoyl]-2-(1H-imidazole-4-yl)-ethyl]carbamic Acid Benzyl Ester]	0.15 µM	0.05 µM		> 1 µM	0.31 µM		
0.2 µM	0.0022 µM	0.017 µM	CC(CNC(=O)CN(Cc1ccc(OCc2ccccc2)cc1)C(=O)[C@H](Cc1c[nH]cn1)NC(=O)NCc1ccccc1)c1ccccc1 (stereo partly drawn) [Example 6, (S)-N-(4-Benzyloxy-benzyl)-2-(3-benzyl-ureido)-3-(1H-imidazole-4-yl)-N-[(2-phenyl-propylcarbamoyl)-methyl]-propionamide]	0.5 µM	0.2 µM		> 1 µM			
9.8 µM	0.36 µM		O=C(CN(Cc1ccc(OCc2ccccc2)cc1)C(=O)[C@H](Cc1c[nH]cn1)NC(=O)OCc1ccccc1)NCCc1ccccc1F [Example 7, (S)-[1-((4-Benzyloxy-benzyl)-{[2-(2-fluoro-phenyl)-ethylcarbamoyl]-methyl]-carbamoyl)-2-(1H-imidazole-4-yl)-ethyl]-carbamic Acid Benzyl Ester]		0.1 µM		> 1 µM			
7.8 µM	0.3 µM		O=C(CN(Cc1ccc(OCc2ccccc2)cc1)C(=O)[C@H](Cc1c[nH]cn1)NC(=O)OCc1ccccc1)NCCc1ccccn1 [Example 8, (S)-[1-{(4-Benzyloxy-benzyl)-[(2-pyridin-2-yl-ethylcarbamoyl)-methyl]-carbamoyl]-2-(1H-imidazole-4-yl)-ethyl]-carbamic Acid Benzyl Ester]		0.2 µM		> 1 µM			
4.5 µM	0.36 µM		O=C(CN(Cc1ccc(OCc2ccccc2)cc1)C(=O)[C@H](Cc1c[nH]cn1)NC(=O)OCc1ccccc1)NCCc1ccccc1Br [Example 9, (S)-[1-((4-Benzyloxy-benzyl)-{[2-(2-bromo-phenyl)-ethylcarbamoyl]-methyl}-carbamoyl)-2-(1H-imidazole-4-yl)-ethyl]-carbamic Acid Benzyl Ester]		0.2 µM		> 1 µM			

Structure (SMILES)	IC50 [1, 4]	IC50 [1, 5]	IC50 [1, 6]	IC50 [1, 7]	minimal effective concentration [2, 8]	IC50 [3, 9]	IC50 [3, 10]	IC50 [3, 11]	Gel Shift (μM) MED, number in parentheses ([2]; average obtained by additional tests)	Gel Shift (μM) MED (minimal effective dose to observe inhibition of ras farnesylation) [2, 8]
O=C(CN(Cc1ccc(Cl)cc1)C(=O)[C@H](Cc1c[nH]cn1)NC(=O)OCc1ccccc1)NCCOCc1ccccc1 [Example 3]	3.1 µM	0.97 µM	0.61 µM	2.8 µM	0.25 µM	> 1 µM				
O=C(CN(Cc1ccc(OCc2ccccc2)cc1)C(=O)[C@H](Cc1c[nH]cn1)NC(=O)OCc1ccccc1)NCC(c1ccccc1)c1ccccc1 [Example 5, (S)-[1-[(4-Benzyloxy-benzyl)-[(2,2-diphenyl-ethylcarbamoyl)-methyl]-carbamoyl]-2-(1H-imidazole-4-yl)-ethvl]-carbamic Acid Benzyl Ester]	1.73 µM	0.038 µM		1.6 µM	0.2 µM	0.71 µM		2.5 µM	0.05 µM	
C[C@H](Cc1ccccc1)NC(=O)CN(Cc1ccc(OCc2ccccc2)cc1)C(=O)[C@H](Cc1c[nH]cn1)NC(=O)OCc1ccccc1 [Example 10]	0.58 µM	0.018 µM				0.71 µM				0.01 to 0.05 µM
C[C@@H](Cc1ccccc1)NC(=O)CN(Cc1ccc(OCc2ccccc2)cc1)C(=O)[C@H](Cc1c[nH]cn1)NC(=O)OCc1ccccc1 [Example 11]	2.5 µM	0.082 µM			0.2 µM	> 1 µM				
